Test results as given in ChEMBL document CHEMBL1129140, “Synthesis of C-oxetanosyl-thiazole and its carbocyclic analog nucleosides as potential chemotherapeutic agents” (Bioorg Med Chem Lett, 1996).
Blank lines part the entries; values can stand above or below the compound they belong to. Active and inactive are the calls of the source. The rule behind the calls is not given here.

Legend:
Type in all cases: functional, cell-based
[1] = target: High affinity nerve growth factor receptor (Rattus norvegicus) (UniProt P35739); experiment: Induction of NGF receptor-induced differentiation of PC12 cells at 1-100 ug/ml; conditions: PC-12
Chain of High affinity nerve growth factor receptor (Rattus norvegicus) (P35739 whole entry): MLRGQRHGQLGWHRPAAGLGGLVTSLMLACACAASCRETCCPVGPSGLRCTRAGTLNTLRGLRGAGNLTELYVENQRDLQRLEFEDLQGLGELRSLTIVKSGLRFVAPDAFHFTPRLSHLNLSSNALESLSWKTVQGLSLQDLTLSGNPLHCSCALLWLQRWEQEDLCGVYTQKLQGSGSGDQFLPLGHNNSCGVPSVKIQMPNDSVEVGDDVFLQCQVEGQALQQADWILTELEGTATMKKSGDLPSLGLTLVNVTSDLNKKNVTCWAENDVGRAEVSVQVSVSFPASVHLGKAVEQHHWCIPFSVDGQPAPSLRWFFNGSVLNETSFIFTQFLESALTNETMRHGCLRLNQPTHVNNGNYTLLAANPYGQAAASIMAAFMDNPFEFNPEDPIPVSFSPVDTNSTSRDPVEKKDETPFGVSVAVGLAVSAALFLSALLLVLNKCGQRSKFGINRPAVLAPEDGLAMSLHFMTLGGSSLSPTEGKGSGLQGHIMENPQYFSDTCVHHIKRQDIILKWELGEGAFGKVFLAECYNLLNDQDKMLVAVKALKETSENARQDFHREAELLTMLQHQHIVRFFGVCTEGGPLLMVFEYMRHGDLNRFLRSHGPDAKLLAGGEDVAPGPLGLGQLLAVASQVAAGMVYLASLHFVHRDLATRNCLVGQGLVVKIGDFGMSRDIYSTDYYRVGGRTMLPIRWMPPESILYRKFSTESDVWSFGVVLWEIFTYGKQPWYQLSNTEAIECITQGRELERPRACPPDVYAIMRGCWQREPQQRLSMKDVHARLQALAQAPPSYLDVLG

PC-12 [2] = experiment: Inhibition of PC12 cell differentiation at 100 ug/ml (No effect); conditions: Rattus norvegicus
[3] = target: High affinity nerve growth factor receptor (Rattus norvegicus) (UniProt P35739); experiment: Inhibition of NGF receptor-induced differentiation of PC12 cells at 100 ug/ml (No effect); conditions: PC-12
PC-12 [4] = experiment: Induction of PC12 cell differentiation at 100 ug/ml; conditions: Rattus norvegicus
[5] = target: High affinity nerve growth factor receptor (Rattus norvegicus) (UniProt P35739); experiment: Induction of NGF receptor-induced differentiation of PC12 cells at 100 and 10 ug/ml; conditions: PC-12

Activity [1]: Active
Structure (SMILES): NC(=O)c1csc([C@@H]2O[C@H](CO)C(O)[C@H]2O)n1 (single isomer, unassigned)

NA [3]: inactive
Structure (SMILES): NC(=O)c1csc([C@@H]2O[C@H](CO)C2CO)n1 (stereo not given in full)
NA (PC-12 [2]): inactive

Induction [5]: Active
Structure (SMILES): NC(=O)c1csc([C@@H]2C[C@H](CO)C2CO)n1 (stereo not given in full)
Induction (PC-12 [4]): Active
